The molecules below were run against T1, ER (Homo sapiens, UniProt P03372) (assay: ER degradation activity, in-cell western blot analysis in T47D cells). Settings: 16 hours, Table A does not say which cell line (T47D or MCF7), read-out: Potency (DC50).
T1 construct: host or cells: T47D and MCF7 human breast cancer cells
T1 sequence (P03372 1-595): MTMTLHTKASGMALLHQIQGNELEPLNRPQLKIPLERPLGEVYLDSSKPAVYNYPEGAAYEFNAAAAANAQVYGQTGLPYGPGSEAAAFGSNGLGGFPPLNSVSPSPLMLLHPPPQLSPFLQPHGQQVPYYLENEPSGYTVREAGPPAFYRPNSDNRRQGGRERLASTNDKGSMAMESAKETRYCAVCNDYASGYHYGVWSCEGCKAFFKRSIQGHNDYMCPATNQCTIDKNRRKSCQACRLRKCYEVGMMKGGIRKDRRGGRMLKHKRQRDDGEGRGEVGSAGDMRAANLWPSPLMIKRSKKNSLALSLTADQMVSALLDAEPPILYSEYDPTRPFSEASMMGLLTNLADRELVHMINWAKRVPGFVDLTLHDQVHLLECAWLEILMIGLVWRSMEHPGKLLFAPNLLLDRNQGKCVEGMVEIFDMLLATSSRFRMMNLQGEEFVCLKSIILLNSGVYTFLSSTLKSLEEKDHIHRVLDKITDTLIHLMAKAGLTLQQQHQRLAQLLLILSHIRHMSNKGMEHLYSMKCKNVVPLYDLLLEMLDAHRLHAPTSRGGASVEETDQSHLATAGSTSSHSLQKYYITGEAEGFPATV
Format: cell-based
Procedure, shortened: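 In-cell western, T47D; compounds 16 h, 0.5% DMSO final; anti-rabbit-680/anti-mouse-800 secondaries, 1 h RT, dark; read on CLX imager. ER % vs untreated/DMSO wells (100%).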

Structure (SMILES) | DC50
O=C1CCC(N2C(=O)c3cc4c(cc3C2=O)CN(C(=O)C2CCC(CN3CCN(c5ccc([C@@H]6c7ccc(O)cc7CC[C@@H]6c6ccccc6)cc5)CC3)CC2)C4)C(=O)N1 (stereo partly drawn) [E 365, 2-(2,6-dioxopiperidin-3-yl)-6-(4-((4-(4-((1R,2S)-6-hydroxy-2-phenyl-1,2,3,4-tetrahydronaphthalen-1-yl)phenyl)piperazin-1-yl)methyl)cyclohexane-1-carbonyl)-6,7-dihydropyrrolo[3,4-f]isoindole-1,3(2H,5H)-dione] | > 100 nM
C[C@@H]1Cc2c([nH]c3ccccc23)[C@@H](c2c(F)cc(C3CCN(C[C@H]4CC[C@H](N5Cc6cc7c(cc6C5)C(=O)N(C5CCC(=O)NC5=O)C7=O)CC4)CC3)cc2F)N1CC(F)F (stereo partly drawn) [E 366, 6-((1R,4r)-4-((4-(4-((1R,3R)-2-(2,2-difluoroethyl)-3-methyl-2,3,4,9-tetrahydro-1H-pyrido[3,4-b]indol-1-yl)-3,5-difluorophenyl)piperidin-1-yl)methyl)cyclohexyl)-2-(2,6-dioxopiperidin-3-yl)-6,7-dihydropyrrolo[3,4-f]isoindole-1,3(2H,5H)-dione] | > 100 nM
C[C@@H]1Cc2c([nH]c3ccccc23)[C@@H](c2c(F)cc(C3CCN(C[C@H]4CC[C@@H](N5Cc6cc7c(cc6C5)C(=O)N(C5CCC(=O)NC5=O)C7=O)CC4)CC3)cc2F)N1CC(F)F (stereo partly drawn) [E 367, 6-((1S,4s)-4-((4-(4-((1R,3R)-2-(2,2-difluoroethyl)-3-methyl-2,3,4,9-tetrahydro-1H-pyrido[3,4-b]indol-1-yl)-3,5-difluorophenyl)piperidin-1-yl)methyl)cyclohexyl)-2-(2,6-dioxopiperidin-3-yl)-6,7-dihydropyrrolo[3,4-f]isoindole-1,3(2H,5H)-dione] | > 100 nM
C[C@@H]1Cc2c([nH]c3ccccc23)[C@@H](c2c(F)cc(C(=O)N3CCC4(CC3)CC(CN3Cc5cc6c(cc5C3)C(=O)N(C3CCC(=O)NC3=O)C6=O)C4)cc2F)N1CC(F)F (stereo partly drawn) [E 369, 6-((7-(4-((1R,3R)-2-(2,2-difluoroethyl)-3-methyl-2,3,4,9-tetrahydro-1H-pyrido[3,4-b]indol-1-yl)-3,5-difluorobenzoyl)-7-azaspiro[3.5]nonan-2-yl)methyl)-2-(2,6-dioxopiperidin-3-yl)-6,7-dihydropyrrolo[3,4-f]isoindole-1,3(2H,5H)-dione] | > 100 nM
C[C@@H]1Cc2c([nH]c3ccccc23)[C@@H](c2c(F)cc(CN3CCC4(CC3)CC(CN3Cc5cc6c(cc5C3)C(=O)N(C3CCC(=O)NC3=O)C6=O)C4)cc2F)N1CC(F)F (stereo partly drawn) [E 370, 6-((7-(4-((1R,3R)-2-(2,2-difluoroethyl)-3-methyl-2,3,4,9-tetrahydro-1H-pyrido[3,4-b]indol-1-yl)-3,5-difluorobenzyl)-7-azaspiro[3.5]nonan-2-yl)methyl)-2-(2,6-dioxopiperidin-3-yl)-6,7-dihydropyrrolo[3,4-f]isoindole-1,3(2H,5H)-dione] | > 100 nM
O=C1CCC(N2C(=O)c3cc4c(cc3C2=O)CN(Cc2ccc(N3CC(Nc5ccc([C@@H]6c7ccc(O)cc7CC[C@@H]6c6ccccc6)cc5)C3)nc2)C4)C(=O)N1 (stereo partly drawn) [E 373, 2-(2,6-dioxopiperidin-3-yl)-6-((6-(3-((4-((1R,2S)-6-hydroxy-2-phenyl-1,2,3,4-tetrahydronaphthalen-1-yl)phenyl)amino)azetidin-1-yl)pyridin-3-yl)methyl)-6,7-dihydropyrrolo[3,4-f]isoindole-1,3(2H,5H)-dione] | > 100 nM
O=C1CCC(N2C(=O)c3cc4c(cc3C2=O)CN(C[C@H]2CC[C@H](N3CC(Nc5ccc([C@@H]6c7ccc(O)cc7CC[C@@H]6c6ccccc6)cc5)C3)CC2)C4)C(=O)N1 (stereo partly drawn) [E 374, 2-(2,6-dioxopiperidin-3-yl)-6-(((1R,4r)-4-(3-((4-((1R,2S)-6-hydroxy-2-phenyl-1,2,3,4-tetrahydronaphthalen-1-yl)phenyl)amino)azetidin-1-yl)cyclohexyl)methyl)-6,7-dihydropyrrolo[3,4-f]isoindole-1,3(2H,5H)-dione] | > 100 nM
O=C1CCC(N2C(=O)c3cc4c(cc3C2=O)CN(C[C@H]2CC[C@@H](N3CC(Nc5ccc([C@@H]6c7ccc(O)cc7CC[C@@H]6c6ccccc6)cc5)C3)CC2)C4)C(=O)N1 (stereo partly drawn) [E 375, 2-(2,6-dioxopiperidin-3-yl)-6-(((1S,4s)-4-(3-((4-((1R,2S)-6-hydroxy-2-phenyl-1,2,3,4-tetrahydronaphthalen-1-yl)phenyl)amino)azetidin-1-yl)cyclohexyl)methyl)-6,7-dihydropyrrolo[3,4-f]isoindole-1,3(2H,5H)-dione] | > 100 nM
O=C1CCC(N2C(=O)c3cc4c(cc3C2=O)CN(CC(=O)N2CCC(C(=O)N3CC(Oc5ccc([C@@H]6c7ccc(O)cc7CC[C@@H]6c6ccccc6)cc5)C3)CC2)C4)C(=O)N1 (stereo partly drawn) [E 376, 2-(2,6-dioxopiperidin-3-yl)-6-(2-(4-(3-(4-((1R,2S)-6-hydroxy-2-phenyl-1,2,3,4-tetrahydronaphthalen-1-yl)phenoxy)azetidine-1-carbonyl)piperidin-1-yl)-2-oxoethyl)-6,7-dihydropyrrolo[3,4-f]isoindole-1,3(2H,5H)-dione] | > 100 nM
O=C1CCC(N2C(=O)c3cc4c(cc3C2=O)CN(CC(=O)N2CCC(N3CC(Oc5ccc([C@@H]6c7ccc(O)cc7CC[C@@H]6c6ccccc6)cc5)C3)CC2)C4)C(=O)N1 (stereo partly drawn) [E 377, 2-(2,6-dioxopiperidin-3-yl)-6-(2-(4-(3-(4-((1R,2S)-6-hydroxy-2-phenyl-1,2,3,4-tetrahydronaphthalen-1-yl)phenoxy)azetidin-1-yl)piperidin-1-yl)-2-oxoethyl)-6,7-dihydropyrrolo[3,4-f]isoindole-1,3(2H,5H)-dione] | 10 to 100 nM
C[C@@H]1Cc2c([nH]c3ccccc23)[C@@H](c2c(F)cc(C(=O)N3CCC4(CCC(CN5Cc6cc7c(cc6C5)C(=O)N(C5CCC(=O)NC5=O)C7=O)CC4)CC3)cc2F)N1CC(F)F (stereo partly drawn) [E 378, 6-((3-(4-((1R,3R)-2-(2,2-difluoroethyl)-3-methyl-2,3,4,9-tetrahydro-1H-pyrido[3,4-b]indol-1-yl)-3,5-difluorobenzoyl)-3-azaspiro[5.5]undecan-9-yl)methyl)-2-(2,6-dioxopiperidin-3-yl)-6,7-dihydropyrrolo[3,4-f]isoindole-1,3(2H,5H)-dione] | > 100 nM
C[C@@H]1Cc2c([nH]c3ccccc23)[C@H](c2c(F)cc(C(=O)N3CCC4(CCC(CN5Cc6cc7c(cc6C5)C(=O)N(C5CCC(=O)NC5=O)C7=O)CC4)CC3)cc2F)N1CC(F)F (stereo partly drawn) [E 379, 6-((3-(4-((1S,3R)-2-(2,2-difluoroethyl)-3-methyl-2,3,4,9-tetrahydro-1H-pyrido[3,4-b]indol-1-yl)-3,5-difluorobenzoyl)-3-azaspiro[5.5]undecan-9-yl)methyl)-2-(2,6-dioxopiperidin-3-yl)-6,7-dihydropyrrolo[3,4-f]isoindole-1,3(2H,5H)-dione] | > 100 nM
C[C@@H]1Cc2c([nH]c3ccccc23)[C@@H](c2c(F)cc(CN3CCC4(CCC(CN5Cc6cc7c(cc6C5)C(=O)N(C5CCC(=O)NC5=O)C7=O)CC4)CC3)cc2F)N1CC(F)F (stereo partly drawn) [E 380, 6-((3-(4-((1R,3R)-2-(2,2-difluoroethyl)-3-methyl-2,3,4,9-tetrahydro-1H-pyrido[3,4-b]indol-1-yl)-3,5-difluorobenzyl)-3-azaspiro[5.5]undecan-9-yl)methyl)-2-(2,6-dioxopiperidin-3-yl)-6,7-dihydropyrrolo[3,4-f]isoindole-1,3(2H,5H)-dione] | > 100 nM
C[C@@H]1Cc2c([nH]c3ccccc23)[C@H](c2c(F)cc(CN3CCC4(CCC(CN5Cc6cc7c(cc6C5)C(=O)N(C5CCC(=O)NC5=O)C7=O)CC4)CC3)cc2F)N1CC(F)F (stereo partly drawn) [E 381, 6-((3-(4-((1S,3R)-2-(2,2-difluoroethyl)-3-methyl-2,3,4,9-tetrahydro-1H-pyrido[3,4-b]indol-1-yl)-3,5-difluorobenzyl)-3-azaspiro[5.5]undecan-9-yl)methyl)-2-(2,6-dioxopiperidin-3-yl)-6,7-dihydropyrrolo[3,4-f]isoindole-1,3(2H,5H)-dione] | > 100 nM
C[C@@H]1Cc2c([nH]c3ccccc23)[C@@H](c2c(F)cc(CN3CCC4(CCC(C(=O)N5Cc6cc7c(cc6C5)C(=O)N(C5CCC(=O)NC5=O)C7=O)CC4)CC3)cc2F)N1CC(F)F (stereo partly drawn) [E 382, 6-(3-(4-((1R,3R)-2-(2,2-difluoroethyl)-3-methyl-2,3,4,9-tetrahydro-1H-pyrido[3,4-b]indol-1-yl)-3,5-difluorobenzyl)-3-azaspiro[5.5]undecane-9-carbonyl)-2-(2,6-dioxopiperidin-3-yl)-6,7-dihydropyrrolo[3,4-f]isoindole-1,3(2H,5H)-dione] | > 100 nM
C[C@@H]1Cc2c([nH]c3ccccc23)[C@H](c2c(F)cc(CN3CCC4(CCC(C(=O)N5Cc6cc7c(cc6C5)C(=O)N(C5CCC(=O)NC5=O)C7=O)CC4)CC3)cc2F)N1CC(F)F (stereo partly drawn) [E 383, 6-(3-(4-((1S,3R)-2-(2,2-difluoroethyl)-3-methyl-2,3,4,9-tetrahydro-1H-pyrido[3,4-b]indol-1-yl)-3,5-difluorobenzyl)-3-azaspiro[5.5]undecane-9-carbonyl)-2-(2,6-dioxopiperidin-3-yl)-6,7-dihydropyrrolo[3,4-f]isoindole-1,3(2H,5H)-dione] | > 100 nM
